Drawing on ChEMBL document CHEMBL1129088, “Synthesis and antitumor activity of novel duocarmycin derivatives” (Bioorg Med Chem Lett, 1996), this text covers IC50 and T/C for seven compounds.

Assay [1] concerns HeLa. In words: In vitro cytotoxicity against HeLaS3 cell lines. Format: functional, cell-based. To be noted: Homo sapiens.
The test system of assay [2] is Mus musculus. In words: Compound was evaluated in vivo for the antitumor activity against murine sarcoma 180 cell lines at the specified dose 4.0 mg/kg. The class given is functional.
In assay [3] the test system is Mus musculus. In words: Compound was evaluated in vivo for the antitumor activity against murine sarcoma 180 cell lines at the specified dose 8.0 mg/kg. The class given is functional.
Assay [4] has as its system Mus musculus. In words: Compound was evaluated in vivo for the antitumor activity against murine sarcoma 180 cell lines at the specified dose 16 mg/kg. The class given is functional.
Assay [5] relates to Mus musculus. In words: Compound was evaluated in vivo for the antitumor activity against murine sarcoma 180 cell lines at the specified dose 0.5 mg/kg. The class given is functional.
The test system of assay [6] is Mus musculus. In words: Compound was evaluated in vivo for the antitumor activity against murine sarcoma 180 cell lines at the specified dose 1 mg/kg. The class given is functional.
The subject of assay [7] is Mus musculus. In words: Compound was evaluated in vivo for the antitumor activity against murine sarcoma 180 cell lines at the specified dose 0.25 mg/kg. Format: functional.
In assay [8] the test system is Mus musculus. In words: Compound was evaluated in vivo for the antitumor activity against murine sarcoma 180 cell lines at the specified dose 2.0 mg/kg. The class given is functional.
The subject of assay [9] is Mus musculus. In words: Compound was evaluated in vivo for the antitumor activity against murine sarcoma 180 cell lines at the specified dose 1.0 mg/kg. Format: functional.

Consider `COC(=O)[C@]1(C)Nc2c(OC(=O)N(C)C)cc3c(c2C1=O)[C@H](CBr)CN3C(=O)/C=C/c1ccc(OC)cc1`, for which inhibition in assay [1] was half-maximal at 510 nM (IC50). In addition, the T/C was 0.19 in [2], 0.14 in assay [3] and 0.057 in assay [4].

In the case of `COC(=O)[C@]1(C)Nc2c(OC(=O)N(C)C)cc3c(c2C1=O)[C@H](CBr)CN3C(=O)COc1ccc(OC)cc1`, the concentration for half-maximal inhibition (IC50) (in general, the concentration that inhibits the measured activity by half) in assay [1] worked out at 98 nM. The T/C worked out at 0.24 in [2], 0.16 in assay [3] and 0.076 in assay [4].

`COC(=O)[C@@]1(C)C(=O)c2c3c(cc(O)c2N1C(=O)N(C)C)N(C(=O)c1cc2cc(OC)c(OC)c(OC)c2[nH]1)C[C@H]3CBr` came in with a half-maximal inhibitory concentration (IC50) in assay [1] of 56 nM. Further, the T/C was 0.13 in assay [5], 0.087 in assay [6] and 0.31 in [7].

In assay [1], `CNc1ccc(/C=C/C(=O)N2C[C@@H](CBr)c3c2cc(OC(=O)N(C)C)c2c3C(=O)[C@](C)(C(=O)OC)N2)cc1` returned an IC50 of 720 nM. The T/C turned out to be 0.18 in assay [2], 0.1 in assay [3] and 0.055 in assay [4].

The compound `COC(=O)[C@]1(C)Nc2c(O)cc3c(c2C1=O)[C@H](CBr)CN3C(=O)c1cc2cc(OC)c(OC)c(OC)c2[nH]1` registered an IC50 in assay [1] of 0.028 nM. Besides, the T/C in assay [7] amounted to 0.024.

In turn, `COC(=O)Nc1ccc2[nH]c(C(=O)N3C[C@@H](CBr)c4c3cc(OC(=O)N(C)C)c3c4C(=O)[C@](C)(C(=O)OC)N3)cc2c1` gave a half-maximal inhibitory concentration (IC50) in assay [1] of 584 nM. Also, the T/C in [8] is 0.31; in assay [2], 0.13.

In turn, `COC(=O)[C@]1(C)Nc2c(OC(=O)N(C)C)cc3c(c2C1=O)[C@H](CBr)CN3C(=O)c1cc2cc(OC)ccc2o1` yielded an IC50 in [1] of 400 nM. The T/C in [5] is on record as 0.26; in assay [9], 0.13.
